The values that follow are results of earlier work, collected in patent publication US6734210B2, “Therapeutically improved salts of azelaic acid” (priority 2000, dated 2004).

As for `O=C(O)CCCCCCCC(=O)O` [azelaic acid], for the setting “cosmetic oils”, the “solubility in cosmetic oils” value is on record as “little or no solubility”. For the same molecule, the “maximum azelaic acid content of a water solution” value (water) is recorded as “about 0.24 % by weight (w/w)”.
